# Experimental data from publication PMC8201324, “Pyrazoles and Pyrazolines as Anti-Inflammatory Agents” (Molecules, 2021).
# Marks after values point to notes of the source that are not given here.
# Columns and labels:
# [1] = Experimental determination of lipophilicity as RM values (RP-TLC); type: physicochemical; set-up: key: RM = log[(1/Rf) − 1] from RP-TLC Rf values; conditions: methanol/water 70/30 v/v, 24 °C, average of at least five measurements
# Excerpt: Lipophilicity is the key physicochemical parameter of a bioactive molecule, linking solubility, ligand-target binding interactions and membrane permeability with absorption, distribution, bioavailability, metabolism and elimination (ADME) and toxicological effects, crucial for its biological activity. The reverse phase thin layer chromatography (RPTLC) method was used for the experimental determination of the lipophilic character of the synthesized compounds as RM values (Table 2). Lipophilicity was also theoretically calculated as clog P values, using the CLOGP Program of Biobyte Corp. and as LPSP-lipophilicity values through Spartan v.5.1.3. (Wavefunction Inc., Irvine, CA, USA). According to the calculated clog P values, as well as LPSP, the most lipophilic compounds were the compounds 2c, 2d, 2e and 2g. This observation was supported by the RM values (with the exception of 2g).
# Lipophilicity as RM values was determined through reversed phase TLC (RP-TLC) on silica gel plates impregnated with 5% (v/v) liquid paraffin in light petroleum ether. Methanol/water mixture (70/30, v/v) was used a mobile phase. Closed chromatography tanks saturated with the mobile phase at 24 °C were used for the development of the plates while the spots were detected under UV light. For the determination of RM values, five individual measurements of Rf values were recorded, and the RM values were derived from the equation RM = log [(1/Rf) − 1] [42, 43] (Table 2).
# [2] = Reducing activity of the stable radical DPPH; type: biochemical
# Description: The novel derivatives were studied for their interaction with the stable 2,2-diphenyl-1-picrylhydrazyl free radical (DPPH) at concentrations 50 µM, 100 µM, 200 µM and after 20 and 60 min (Table 3). This assay is based on the reduction of the DPPH by transferring an electron from the antioxidant. […] However, it seems that the interaction is dependent on the concentration and on the reaction time. From this point of view, it can be concluded that the acetyl pyrazolyl derivatives 2c and 2f seem to present the highest scavenging activities. An increase in concentration favors the activity. […] As for compounds 2a, 2b, 2c and 2f, activity seems to be time dependent at 200 µM. […] The presence of a chlorine group in 2e pyrazoline leads to an activity increase (compared to 2d) in concentration 200 µM. The acetyl derivative 2f presents better activity than 2b at 200 µM.
# (§1) A stock solution (1% DMSO in the appropriate buffer with the tested compound diluted under sonication) was prepared for the in vitro assays from which several dilutions were made with the appropriate buffer. The in vitro experiments were performed at least in triplicate, and the standard deviation of absorbance was less than 10% of the mean.
# A stock solution (10 mM) of the novel derivatives in DMSO was prepared and an equal volume of it was added to a solution of DPPH in absolute ethanol to reach final concentrations 50, 100 µM and 200 µM. The absorbance was recorded at 517 nm, after 20 and 60 min at room temperature (Table 3).
# [3] = ABTS+ decolorization assay for antioxidant activity; type: biochemical
# Excerpt: Pyrazolines 2d and 2e which are the most lipophilic compounds, showing antioxidant activity using the ABTS radical cation (ABTS^•+) generated through potassium persulfate by oxidation with no participation of an intermediary radical. This reduction is completed by adding electron-donating antioxidants. It seems that lipophilicity influences the activity, since both present high lipophilicity values.
# as §1
# The ABTS radical cation (ABTS^+•) was generated by mixing ABTS stock solution in water (7 mM) with potassium persulfate (2.45 mM) and left in the dark at room temperature for 12–16 h before use. The results are recorded immediately after the mixing solutions at 734 nm. The results were compared to the appropriate standard inhibitor Trolox (Table 4).
# [4] = tested on: carrageenin-induced rat paw edema; experiment: Inhibition of the carrageenin-induced rat paw edema; type: in vivo, Fisher 344 rats; conditions: for CPE % (reduction in the rat paw edema induced by carrageenin): 0.0057 mmol/Kg body weight, intraperitoneally, 3.5 h after carrageenin; for anti-inflammatory activity in carrageenin-induced rat paw edema (in words): intraperitoneal administration
# Excerpt: The carrageenin-induced rat paw edema assay was used, as a model of acute inflammation. Inflammation induced by carrageenan is acute, non-immune, well-researched, and highly reproducible, and is described as a biphasic event. Cardinal signs of inflammation—edema, hyperalgesia, and erythema, are developed immediately following subcutaneous injection, resulting from the action of pro-inflammatory agents: bradykinin, histamine, tachykinins, complement reactive oxygen and nitrogen species. It is known that NSAIDs act during the second phase of prostaglandin release, presenting weak activity in the first phase of histamine and serotonin release.
# The animals (Fisher 344 rats), were housed under standard conditions, and received a diet of commercial food pellets and water ad libitum during the maintenance, but were entirely fasted during the experiment period. Both sexes were used, while pregnant females were excluded. Each group was composed of 6–15 animals. Our studies were in accordance with recognized guidelines on animal experimentation (guidelines for the care and use of laboratory animals published by the Greek Government 160/1991, based on EU regulations 86/609). Rats were kept in the Centre of the School of Veterinary Medicine (EL54 BIO42), Aristotle University of Thessaloniki, which is registered by the official state veterinary authorities (presidential degree 56/2013, in harmony with the European Directive 2010/63/EEC). The experimental protocols were approved by the Animal Ethics Committee of the Prefecture of Central Macedonia.
# Carrageenin in water as an intradermal injection of 0.1 mL 2% was used for the induction of the edema in the right hind paw of the rats, according to the previously reported method. Animals were divided in five-membered groups and the tested compounds were suspended in water (0.0057 mmol/kg body weight), with a few drops of Tween 80, ground in a mortar before administered intraperitoneally simultaneously. The rats were euthanized 3.5 h after carrageenin injection. Comparison of the change in paw weight with that in control animals (treated with water) was expressed as a percent inhibition of the oedema CPE% values using indomethacin (IMA) as a reference compound. Values CPE% are the mean from two different experiments with a standard error of the mean less than 10% (Table 5). Student’s T test was applied.
# [5] = Inhibition of linoleic acid lipid peroxidation (AAPH); type: biochemical
# Description: For the lipid peroxidation study, 2,2′-azobis(2-amidinopropane) hydrochloride (AAPH) was used for the generation of peroxyl radicals. The generation of the conjugated diene hydroperoxide derived from the oxidation of sodium linoleate in an aqueous solution was recorded at 234 nm. The compounds presented high anti-lipid peroxidation activity (78–100%) (Table 4). Pyrazolines 2a and 2b present lower anti-lipid peroxidation activity (89% and 78% respectively).
# as §1
# AAPH was used as free radical initiator of alkylperoxyl radicals. The ability of the compounds to prevent the oxidation of linoleic acid sodium salt from alkylperoxyl radicals was recorded at 234 nm. Trolox was used as reference (93%) (Table 4).
Compound,RM (±SD) [1],RA% 50 µM 20 min [2] [%],RA% 50 µM 60 min [2] [%],RA% 100 µM 20 min [2] [%],RA% 100 µM 60 min [2] [%],RA% 200 µM 20 min [2] [%],RA% 200 µM 60 min [2] [%],ABTS^+ % 100 µM (decolorization activity) [3],CPE % (reduction in the rat paw edema induced by carrageenin) [4],anti-inflammatory activity in carrageenin-induced rat paw edema (in words) [4],AAPH% 100 µM (anti-lipid peroxidation) [5] [%],melting point [°C]
1-(5-(4-((4-bromobenzyl)oxy)phenyl)-3-(thiophen-2-yl)-1H-pyrazol-1-yl)ethan-1-one [Compound 2c],0.68 ± 0.05,17.1,22.4,41.9,44.0,49.4,59.2,no,38.0 * %,medium activity,100,–
"5-(4-((4-bromobenzyl)oxy)phenyl)-3-(4-chlorophenyl)-4,5-dihydro-1H-pyrazole [Compound 2e]",0.87 ± 0.07,9.5,13.0,14.8,17.8,25.6,30.1,30%,56.0 ** %,highest anti-inflammatory activity,98,–
"c1ccc(C2=NNC(c3cccc4ccccc34)C2)cc1 (stereo not shown) [Compound 2a, 5-(naphthalen-1-yl)-3-phenyl-4,5-dihydro-1H-pyrazole]",0.22 ± 0.2,15.0,20.0,22.9,32.0,37.2,49.3,no,no,inactive,89,45 to 47
"Clc1ccc(C2=NNC(c3ccc4[nH]ccc4c3)C2)cc1 (stereo not shown) [Compound 2b, 5-(3-(4-chlorophenyl)-4,5-dihydro-1H-pyrazol-5-yl)-1H-indole]",0.23 ± 0.03,19.3,25.0,26.1,33.6,34.9,44.4,no,27.0 * %,medium activity,78,96 to 98
"Brc1ccc(COc2ccc(C3CC(c4ccccc4)=NN3)cc2)cc1 (stereo not shown) [Compound 2d, 5-(4-((4-bromobenzyl)oxy)phenyl)-3-phenyl-4,5-dihydro-1H-pyrazole]",0.72 ± 0.06,6.3,9.5,19.4,37.4,9.4,14.9,15%,63.0 ** %,highest anti-inflammatory activity,96,98 to 100
"CC(=O)n1nc(-c2ccccc2)cc1-c1ccc2[nH]ccc2c1 [Compound 2f, 1-(5-(1H-indol-5-yl)-3-phenyl-1H-pyrazol-1-yl)ethan-1-one]",−0.07 ± 0.01,21.0,24.7,34.7,38.8,50.1,59.5,no,30.0 * %,medium activity,95,65 to 66
"CC(=O)n1nc(-c2ccc(Cl)cc2)cc1-c1cccc2ccccc12 [Compound 2g, 1-(3-(4-chlorophenyl)-5-(naphthalen-1-yl)-1H-pyrazol-1-yl)ethan-1-one]",−0.59 ± 0.05,9.0,12.7,11.2,13.6,22.5,27.7,no,33.0 * %,medium activity,100,53 to 55
"CC(=O)n1nc(-c2ccccc2)cc1-c1cccc(Oc2ccccc2)c1 [Compound 2h, 1-(5-(3-phenoxyphenyl)-3-phenyl-1H-pyrazol-1-yl)ethan-1-one]",0.41 ± 0.02,6.7,9.5,7.8,9.6,17.2,20.9,no,16.0 * %,low activity,97,44 to 46
